Test results from patent US20220372040A1, “METTL3 MODULATORS” (Accent Therapeutics, Inc., priority 2020, published 2022).

test system: MOLM-13 cells; test: MOLM-13 48 Hour cell proliferation assay (Cell Titer-Glo); type: cell-based; conditions: Homo sapiens
Method: MOLM-13 48 Hour Cell Proliferation Assay
MOLM-13 (DSMZ) cells were seeded at 1000 cells per well in a volume of 44 μL in a Falcon 384-well tissue culture treated clear bottom microplate in RPMI 1640 media containing 10% fetal bovine serum using a Multidrop Combi (ThermoFisher Scientific). Cells were incubated overnight at 37° C. in a humidified tissue culture incubator. The Mosquito® HTS Liquid Handler was used to make a compound/media intermediate plate by aliquoting […] of compound from the initial compound dilution plate (concentrations ranging from 10.0 mM to 38.0 nM in 100% DMSO) into a V bottom 384-well screen matrix plate containing 49 µL of media containing the appropriate serum (50-fold dilution, 2% DMSO). The Apricot liquid handling system was used to transfer […] compounds from the intermediate plate into the Falcon 384-well tissue culture plate containing 44 μL cells (10-point, 4-fold dilution spanning concentrations 25.0 μM to […], 0.25% DMSO final), and placed in a humidified tissue culture incubator at 37° C. After 48 hours, 25 μL of Cell Titer-Glo reagent (Promega) was added to each well using a Multidrop Combi. The plate was protected from light and placed on an IKA plate shaker for at 300 rpm for 10 minutes at room temperature. The plate was read on an EnVision plate reader (Perkin Elmer) using the Ultra Sensitive Luminescence protocol. Data analysis was performed by normalizing the raw luminescence units to an average of the positive control values for staurosporine (100% cell death) and the negative control values for DMSO (0% cell death). An IC50 was calculated using a 4-parameter logistic nonlinear regression model in GraphPad Prism.

How did the IC50 turn out when CNc1ccc2ccc(OCc3cncc(-n4cc(Cl)c5c(N)ncnc54)c3)cc2n1 [Compound I-74, 7-((5-(4-amino-5-chloro-7H-pyrrolo[2,3-d]pyrimidin-7-yl)pyridin-3-yl)methoxy)-N-methylquinolin-2-amine] was run?
Its IC50 is 1000 to 10000 nM.

For CNc1ccc2cc(CCc3cccc(-n4cc(Cl)c5c(N)ncnc54)c3)ccc2n1 [Compound I-70], which IC50 is on record?
The IC50 was 1000 to 10000 nM.

CNc1ccc2ccc(OCc3cccc(-n4cc(Cl)c5c(N)ncnc54)c3)cc2n1 [Compound I-87] was tested. Which IC50 did it give?
Its IC50 is 1000 to 10000 nM.

Which IC50 does the source give for CNc1ccc2ccc(OCc3cc(CO)cc(-n4cc(Cl)c5c(N)ncnc54)c3)cc2n1 [Compound I-34] here?
The IC50 was < 1000 nM.

How did the IC50 turn out when CNc1ccc2ccc(OCc3cncc(-n4c(C)cc5c(N)ncnc54)c3)cc2n1 [Compound I-36] was run?
Its IC50 is 1000 to 10000 nM.

For CNc1ccc2ccc(OCc3cncc(-n4cc(CC5CC5)c5c(N)ncnc54)c3)cc2n1 [Compound I-29], which IC50 is on record?
The IC50 was < 1000 nM.

Which IC50 does the source give for CNc1ccc2ccc(OCc3cncc(-n4cc(-c5ccnn5C)c5c(N)ncnc54)c3)cc2n1 [Compound I-35] here?
Its IC50 is < 1000 nM.

Which IC50 does the source give for CNc1ccc2ccc(CCc3cncc(-n4ccc5c(N)ncnc54)c3)cc2n1 [Compound I-30] here?
Its IC50 is 1000 to 10000 nM.

CNc1ccc2ccc(OCc3cncc(-n4cc(C5CCCC5)c5c(N)ncnc54)c3)cc2n1 [Compound I-58] was tested. Which IC50 did it give?
Its IC50 is < 1000 nM.
